Assay results from patent publication US20060204457A1, “Cosmetic uv-screen compositions and aminobutadiene-based uv-absorbing complexes therefor” (priority 2003, published 2006).

Test: Dye stability under Xenon test conditions; UV absorption after Xenon exposure
Type: physicochemical
Conditions: thin layer on TAC base
Description: Measurements are carried out at the Ci 4000 Xenon Weather-Ometer of Atlas Electric Devices Company. The extinction wavelength spectrum represents sunlight spectrum. Experiments are carried out with samples consisting of thin layers of UV absorbing complexes coated on TAC base materials, and dryed under air before Xenon radiation was started.
Solutions for coating on the TAC sheet materials are prepared by making a 5% gelatin solution of UV-gelatin in a suitable solvent (water/ethanol 50:50) for 30 minutes at a temperature of 40 C.
A fixed concentration of the UV absorbing complex was applied with a concentration of 5*10^−3 Mol/L
UV absorption of samples is measured with standard UV spectrophotometer system. UV absorption is directly correlated to the number of functional molecules in the samples after the Xenon treatment, and the results are listed in the following table.
UV absorption after Xenon radiation (in hours treatment time).

## O=c1c(O)c(-c2ccc(O)c(O)c2)oc2cc(O)cc(O)c12 [Quercetin]
0 hours treatment time
  UV absorption after Xenon radiation: 0.85
40 hours treatment time
  UV absorption after Xenon radiation: 0.53
80 hours treatment time
  UV absorption after Xenon radiation: 0.20
120 hours treatment time
  UV absorption after Xenon radiation: 0.14
